Experimental data from US12486246B2, “Replication protein A (RPA)-DNA interaction inhibitors” (THE TRUSTEES OF INDIANA UNIVERSITY, priority 2019, dated 2025).

Experiments:
[1] = target: T1, RPA-AB construct (RPA70 AB domain) (Homo sapiens, UniProt P27694); assay: Differential scanning fluorimetry (DSF); type: binding
T1 construct: The DBD-A/B construct was expressed as a His6-RPA181-422 fusion protein; His6 (N); made in house; host or cells: E. coli BL21 (DE3)
Method: (§1) In order to probe the potential role of DNA intercalation as a mechanism for RPA inhibition, compounds 19, 23, 26, 27, 43 and 45 were analyzed using FID assay along with doxorubicin (Dox) as a positive control. […] In addition, direct binding of 9 derivatives to the target protein was assessed using a differential scan fluorimetry (DSF) assay. This assay assesses the melting profile of a protein at increasing temperatures via fluorescent dye binding. The direct interaction of a small molecule to the target protein can either increase or decrease the melting temperature (Tm) of the target depending on the specific protein and their interactions. […] Heparin sulfate, a known RPA interacting molecule often used in the purification of the protein was used as a control. […] (data not shown). […] (FIG. 1B).
The interaction of compound 43 with RPA-AB constructs was performed by differential scanning fluorimetry using GloMelt™ Dye (Biotum). […] Reactions were run in an ABI 7500 real time PCR machine with temperature increasing from 25° C. to 99° C. at a 2% ramp (˜40 minutes) and fluorescence of the reporter was measured on the SYBR® Green setting. […] Data was uploaded to TSA-CRAFT software and Tm calculated as described by Lee et al. Heparin was employed as a positive control of binding to the AB-box of RPA.

[2] = target: T2, full length heterotrimeric human RPA (Homo sapiens, UniProt P27694); assay: Electrophoretic mobility shift assay (EMSA), binding of full length human RPA to ssDNA; details: for IC50: full length human RPA binding to DNA, mean ± SD of minimum triplicate experiments
T2 construct: Full length, heterotrimeric human RPA (fl-RPA) and DBD-A/B constructs were expressed and purified; made in house
T2 sequence (P27694 whole entry): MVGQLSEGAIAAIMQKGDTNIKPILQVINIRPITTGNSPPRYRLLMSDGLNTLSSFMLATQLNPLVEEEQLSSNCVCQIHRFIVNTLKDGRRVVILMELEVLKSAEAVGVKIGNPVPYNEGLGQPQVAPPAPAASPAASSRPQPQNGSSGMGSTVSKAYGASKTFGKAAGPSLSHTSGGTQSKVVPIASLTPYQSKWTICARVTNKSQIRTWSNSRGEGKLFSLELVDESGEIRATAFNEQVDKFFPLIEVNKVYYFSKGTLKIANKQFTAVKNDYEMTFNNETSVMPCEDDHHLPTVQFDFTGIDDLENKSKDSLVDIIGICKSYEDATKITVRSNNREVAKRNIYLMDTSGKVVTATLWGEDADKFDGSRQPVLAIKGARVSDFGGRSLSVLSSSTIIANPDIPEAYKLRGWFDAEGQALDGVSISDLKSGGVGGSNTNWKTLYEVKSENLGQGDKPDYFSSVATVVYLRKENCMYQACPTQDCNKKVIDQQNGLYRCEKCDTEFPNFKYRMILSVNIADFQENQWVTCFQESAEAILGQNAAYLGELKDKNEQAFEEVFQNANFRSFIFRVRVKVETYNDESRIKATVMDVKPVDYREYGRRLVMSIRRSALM
T2 sequence (P15927 whole entry partner): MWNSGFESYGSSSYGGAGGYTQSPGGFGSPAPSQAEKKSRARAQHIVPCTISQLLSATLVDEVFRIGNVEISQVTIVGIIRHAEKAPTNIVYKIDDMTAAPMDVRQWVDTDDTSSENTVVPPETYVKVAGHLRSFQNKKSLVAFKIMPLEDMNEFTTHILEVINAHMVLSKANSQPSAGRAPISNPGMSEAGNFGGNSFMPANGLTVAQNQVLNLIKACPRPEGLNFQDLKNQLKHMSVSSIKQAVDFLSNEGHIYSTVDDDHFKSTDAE
T2 sequence (P35244 whole entry partner): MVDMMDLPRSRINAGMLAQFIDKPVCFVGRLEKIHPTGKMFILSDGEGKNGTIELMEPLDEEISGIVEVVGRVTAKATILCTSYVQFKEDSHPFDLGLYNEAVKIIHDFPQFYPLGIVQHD
Method: (§2) Full length, heterotrimeric human RPA (fl-RPA) and DBD-A/B constructs were expressed and purified according to previously described protocol. The DBD-A/B construct was expressed as a His6-RPA181-422 fusion protein. E. coli BL21 (DE3) cells in log growth were induced for 3 h with 0.5 mM IPTG at 37° C. The cells were lysed via sonication in buffer containing 20 mM Tris pH 7.5, 500 mM NaCl, 10 mM b-mercaptoethanol, supplemented with 25 μg/mL lysozyme, 1 μg/mL leupeptin, 1 μg/mL pepstatin and 0.5 mM PMSF. The lysate was applied to a 20 mL phosphocellulose column equilibrated in the same buffer and the flow-through material collected, brought to 5 mM Imidazole and loaded onto a 2 ml Ni-NTA column. The column was washed and proteins eluted on with a gradient from 50 mM to 500 mM imidazole. Fractions were assessed by EMSA and SDS-PAGE and DBD-A/B containing fraction were pool, dialyzed against buffer containing 50 mM HEPES pH 7.0, 500 mM NaCl and 1 mM DTT and stored at −80° C.
(§3) EMSAs were carried out using previously described procedure with the following modification. EMSA reactions (20 μL) were performed with 50 nM fl-RPA and 2.5 nM 5′ [^32P]-labeled 34-base DNA in buffer containing 20 mM HEPES (pH 7.8), 1 mM DTT, 0.001% NP-40, 50 mM NaCl. Chemical compounds were suspended in DMSO and DMSO concentration in the reaction mixture was kept constant at 2% or below 5%. RPA was incubated with inhibitor or DMSO control in reaction buffer for 30 min before the addition of DNA. Reactions were incubated for 5 min at room temperature and products separated via 6% native polyacrylamide gel electrophoresis. The bound and unbound fractions were then quantified by phosphor-imager analysis using ImageQuant software (Molecular Dynamics, CA) and IC50 values calculated by non-linear regression using SigmPlot (Sysat). For EMSA reactions with RPA DBD-A/B, 150 nM DBD-A/B was used, and electrophoresis was performed at 4° C. All other conditions were identical to those described for the full-length RPA.
Purified full length heterotrimeric human RPA protein was used to screen a series of analogs in an electrophoretic mobility shift assay (EMSA) measuring direct binding to a ss-DNA substrate. Quantification of the EMSA data and additional concentration dependent analysis to measure IC50 values of newly synthesized analogs provided potential insight into the structure-activity relationships (Table 1 and 2). […] Fluorine and trifluoromethyl substituents were included in pyridinyl compounds 28-29.

[3] = target: T3, RPA DBD-A/B construct (His6-RPA181-422 of RPA70) (Homo sapiens, UniProt P27694); assay: EMSA, binding of RPA DBD-A/B construct to DNA; details: mean ± SD, read-out: RPAA/B IC50
T3 construct: The DBD-A/B construct was expressed as a His6-RPA181-422 fusion protein; His6 (N); made in house; host or cells: E. coli BL21 (DE3)
T3 sequence (P27694 181-422): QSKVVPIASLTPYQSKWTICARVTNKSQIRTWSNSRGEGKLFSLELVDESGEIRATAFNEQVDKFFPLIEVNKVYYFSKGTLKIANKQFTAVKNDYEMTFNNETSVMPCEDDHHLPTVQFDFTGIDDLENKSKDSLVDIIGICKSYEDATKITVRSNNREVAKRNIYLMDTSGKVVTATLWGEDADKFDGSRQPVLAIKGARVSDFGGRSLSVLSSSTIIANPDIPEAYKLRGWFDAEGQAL
Method: as §2, §3
These domains are compact modular domains populated with hydrophobic and basic DNA binding amino acid residues and have great potential to influence binding of the compounds to the RPA70 subunit. RPA DBD-A/B construct was purified via Ni-affinity chromatography. The activity of compounds 23-27 was evaluated on purified DBD-A/B construct using EMSA.

[4] = system: sonicated salmon sperm DNA; assay: Fluorescent intercalator displacement (FID) assay, SYBR-Green; type: binding; details: 25 mM MOPS pH 6.5
Method: The analysis of compound interactions with DNA was determined by inhibition of SYBR-Green intercalation into DNA as we have previously described. Briefly, reactions were performed in 25 mM MOPS (pH 6.5) containing sonicated salmon sperm DNA (8.29 ng/μL), SYBR-Green, and the indicated concentrations of RPA inhibitors. Reactions were conducted in black 96-well plates. Doxorubicin, a known noncovalent DNA binding chemotherapeutic, was used as a positive control. Fluorescence was measured using a BioTek® Synergy™ H1 hybrid multi-mode microplate reader with an excitation wavelength of 485 nm, emission wavelength of 528 nm, and a read height of 7 mm. Data were collected using BioTek® Gen5™ reader software. Reactions were incubated a maximum of 5 min before measurements were collected.
as §1

[5] = Aqueous solubility in unbuffered water; type: physicochemical; details: 43, 44, 45, 46, 47 vs 9, 16, 26, 28, 29 respectively
Method: Aqueous solubility was determined by suspending compound in un-buffered water with stirring. Insoluble material was removed by sedimentation or filtration and soluble compound quantified by absorbance spectroscopy and LC/MS. pH dependence was determined by suspending compound in 10 mM citrate buffer at pH 4.0 or 10 mM phosphate […] as described above in the description.
The morpholine ring is commonly introduced into solvent exposed regions as a privileged solubilizing group to improve solubility or pharmacokinetic properties including metabolic stability of a prospective drug scaffold which is exemplified by many FDA approved drugs. Modifications on Ring A had less of an effect than the morpholino modifications at the alkyl carboxylic acid side chain. To determine the effect of pH on solubility, we prepared solution at 1 mM in citrate buffer at pH 4, phosphate buffer at pH 7 and carbonate buffer at pH 9.5.

T1 sequence (P27694 181-422): as above

| decrease in Tm [1] [°C] | fold increase in activity compared to compound 22 ([2]; full length RPA) [fold] | IC50 [2] [µM] | IC50 [3] [µM] | DNA binding activity (displacement of SYBR-Green intercalator) [4] | aqueous solubility compared to carboxylic acid counterpart (in words) [5] | Compound |
| --- | --- | --- | --- | --- | --- | --- |
| 1.2 |  |  |  |  |  | heparin [reference compound] |
|  | ~3.2 | 2.1 ± 0.48 | 3.3 ± 0.07 | No significant DNA binding activity |  | CCOc1ccc2cc(C3CC(c4ccc(-c5ccco5)cc4)=NN3C(=O)CCCC(=O)O)c(Cl)nc2c1 (centres unmarked) [Compound 23, 5-(5-(2-Chloro-7-ethoxyquinolin-3-yl)-3-(4-(furan-2-yl)phenyl)-4,5-dihydro-1H-pyrazol-1-yl)-5-oxopentanoic acid] |
|  |  | 1.01 ± 0.6 | 3.32 ± 0.016 | No significant DNA binding activity |  | CCOc1ccc2cc(C3CC(c4ccc(-c5ccc(Br)nc5)cc4)=NN3C(=O)CCCC(=O)O)c(Cl)nc2c1 (centres unmarked) [Compound 27, 5-(3-(4-(6-Bromopyridin-3-yl)phenyl)-5-(2-chloro-7-ethoxyquinolin-3-yl)-4,5-dihydro-1H-pyrazol-1-yl)-5-oxopentanoic acid] |
|  |  | 10 ± 1.46 |  |  | increased solubility | CCOc1ccc2cc(C3CC(c4ccc(Br)cc4)=NN3C(=O)CCCC(=O)NCCCN3CCOCC3)c(Cl)nc2c1 (centres unmarked) [Compound 44, 5-(3-(4-Bromophenyl)-5-(2-chloro-7-ethoxyquinolin-3-yl)-4,5-dihydro-1H-pyrazol-1-yl)-N-(3-morpholinopropyl)-5-oxopentanamide] |
|  |  | 4.06 ± 0.56 |  | No significant DNA binding activity | increased solubility | CCOc1ccc2cc(C3CC(c4ccc(-c5ccc(Cl)nc5)cc4)=NN3C(=O)CCCC(=O)NCCCN3CCOCC3)c(Cl)nc2c1 (centres unmarked) [Compound 45, 5-(5-(2-Chloro-7-ethoxyquinolin-3-yl)-3-(4-(6-chloropyridin-3-yl)phenyl)-4,5-dihydro-1H-pyrazol-1-yl)-N-(3-morpholinopropyl)-5-oxopentanamide] |
|  |  | 3.14 ± 0.23 | 16.4 ± 2.09 |  |  | CCOc1ccc2cc(C3CC(c4ccc(-c5ccc(N6CCOCC6)cc5)cc4)=NN3C(=O)CCCC(=O)O)c(Cl)nc2c1 (centres unmarked) [Compound 25, 5-(5-(2-Chloro-7-ethoxyquinolin-3-yl)-3-(4′-morpholino-[1,1′-biphenyl]-4-yl)-4,5-dihydro-1H-pyrazol-1-yl)-5-oxopentanoic acid] |
|  |  | 1.71 ± 0.28 | 4.03 ± 0.28 |  |  | CCOc1ccc2cc(C3CC(c4ccc(-c5cnoc5)cc4)=NN3C(=O)CCCC(=O)O)c(Cl)nc2c1 (centres unmarked) [Compound 24, 5-(5-(2-Chloro-7-ethoxyquinolin-3-yl)-3-(4-(isoxazol-4-yl)phenyl)-4,5-dihydro-1H-pyrazol-1-yl)-5-oxopentanoic acid] |
